The assay deals with RAW264.7. The experiment in a line: Antiinflammatory activity in mouse RAW264.7 cells assessed as inhibition of LPS-stimulated NO production preincubated for 3 hrs followed by LPS stimulation and measured after 24 hrs by Griess reagent based assay. It counts as functional, cell-based.
On to `CC[C@H](C)/C=C(C)/C=C/[C@H]1Oc2c(-c3ccc(O)cc3)c[nH]c(=O)c2[C@H](O)[C@H]1C`, for which the IC50 was 17 µM.

As for `CC(/C=C/C=C(C)/C(O)=C1/C(=O)N/C(=C\c2ccc(O)cc2)C1=O)=C\[C@H](C)[C@@H](C)O`, the IC50 is 14 µM.

Consider `CO[C@@H]1c2c(c(-c3ccc(O)cc3)c[nH]c2=O)O[C@H](/C=C/C(C)=C/[C@H](C)[C@@H](C)O)[C@@H]1C`, for which the IC50 worked out at 17 µM.

As for `CC[C@H](C)/C=C(C)/C=C/[C@H]1Oc2c(-c3ccc(O)cc3)c[nH]c(=O)c2[C@H](OC)[C@H]1C`, the concentration for half-maximal inhibition (IC50) was 9.2 µM.

Turning to `CC[C@H](C)/C=C(C)/C=C/[C@H]1Oc2c(-c3ccc(O)cc3)c[nH]c(=O)c2[C@@H](O)[C@@H]1C`, the IC50 worked out at 19 µM.

`CO[C@@H]1c2c(c(-c3ccc(O)cc3)c[nH]c2=O)O[C@@H](/C=C/C(C)=C/[C@H](C)[C@@H](C)O)[C@@H]1C`: the IC50 was found to be 15 µM.

Regarding `CC(/C=C/C=C(C)/C(O)=C1/C(=O)N[C@H]([C@@H](O)c2ccc(O)cc2)C1=O)=C\[C@H](C)[C@@H](C)O`, the IC50 is greater than 20 µM.

With `CC(/C=C/[C@@H]1Oc2c(-c3ccc(O)cc3)c[nH]c(=O)c2[C@@H](O)[C@H]1C)=C\[C@H](C)[C@@H](C)O`, the 50% inhibitory concentration (IC50) is greater than 20 µM.

Take `CC(/C=C/[C@@H]1Oc2c(-c3ccc(O)cc3)c[nH]c(=O)c2[C@@H](O)[C@H]1C)=C\[C@H](C)[C@H](C)O`: the IC50 is greater than 20 µM.

Turning to `CO[C@@H]1c2c(c(-c3ccc(O)cc3)c[nH]c2=O)O[C@@H](/C=C/C(C)=C/[C@H](C)[C@H](C)O)[C@@H]1C`, the IC50 was 18 µM.

Turning to `CC[C@H](C)/C=C(C)/C=C/[C@H]1Oc2c(-c3ccc(O)cc3)c[nH]c(=O)c2[C@H](OC)[C@@H]1C`, the IC50 is greater than 20 µM.

Take `CC[C@H](C)/C=C(C)/C=C/[C@H]1Oc2c(-c3ccc(O)cc3)c[nH]c(=O)c2[C@H](O)[C@@H]1C`: the IC50 was greater than 20 µM.

Turning to `CC(/C=C/[C@@H]1Oc2c(-c3ccc(O)cc3)c[nH]c(=O)c2[C@H](O)[C@H]1C)=C\[C@H](C)[C@@H](C)O`, the 50% inhibitory concentration (IC50) was greater than 20 µM.

Take `CC(/C=C/C=C(C)/C(O)=C1/C(=O)N[C@@H]([C@@H](O)c2ccc(O)cc2)C1=O)=C\[C@H](C)[C@@H](C)O`: the IC50 is greater than 20 µM.

For the compound `COc1ccc2c(c1)c(CC(=O)O)c(C)n2C(=O)c1ccc(Cl)cc1` [INDOMETHACIN], the half-inhibitory concentration (IC50) came out at 0.62 µM.
